Values of other authors in PMC10151178 (Brain, 2023).

Tested on: IIH patients
Excerpt: The minimal clinically important change in ICP in those with IIH has yet to be determined.[38] […] In this trial ...

CC(=O)Nc1nnc(S(N)(=O)=O)s1 [acetazolamide]
Magnitude of treatment effect on ICP between trial arms (acetazolamide and diet): 5.9 cmCSF | Patients who withdrew due to adverse effects (over a 3-month period, previous randomized controlled trial): 48%
